Source: patent US20090292012A1, “Therapeutic Agent” (priority 2005, published 2009)

Key:
mouse = test: Single oral dose toxicity in mouse; format: in vivo; settings: 1 g/kg weight
Description: No toxicity is found even when the above-mentioned effective ingredient used in the present invention is administered in an effective dose for the exhibition of its action in a living body.

ACAT = test: Determination of inhibitory activity for ACAT, rat liver microsome, [3H]oleoyl-CoA; format: biochemical; settings: relative to 10 μM FR179254 set as 100%
Description: Four of Sprague-Dawley rats were bred for one week and thereafter sacrificed, and the livers were immediately excised. The excised livers were shortly washed with cold brine, and thereafter immersed (25 mL/a rat) into sucrose buffer (0.3 M sucrose, 50 mM Tris-HCl, 1 mM EDTA, 50 mM NaCl, pH 7.4). The resulting livers were homogenized, and the procedures of centrifuging at 10,000×g for 30 minutes and removing the formed precipitates were repeated twice for the homogenized livers. The resulting supernatant was centrifuged at 105,000×g for 70 minutes, and the precipitates were collected and suspended in an appropriate amount of 100 mM phosphate buffer (pH 7.4). The suspension was again suspended in the phosphate buffer so as to have a protein concentration of 10 mg/ml, and EDTA was added thereto so as to have a final concentration of 1 mM. Thereafter, the suspension was subjected to frozen storage at −80° C. until being used.
The enzymatic activity of ACAT was determined according to the partially modified method of Lee et al. (Planta Med., 2004, 70, 678-679).
In a 1.5 mL Eppendorf tube, 1 μL of a dimethyl sulfoxide solution of each subject sample was added to a 92 μL of a reaction aqueous solution (0.05 M potassium phosphate, 1 mM dithiothreitol, 9 mg/mL fatty acid-free bovine serum albumin, 200 μg/mL cholesterol, pH 7.4) containing 1.5 μL of the rat liver microsome prepared in item (1) of Example 2 so as to have a final concentration described in Table 2, and the mixture was incubated at 37° C. for 30 minutes. Here, the purified ethanol extract fraction from a leaf of Peucedanum japonicum -Fr. […] The radioactivity was determined with a liquid scintillation counter LS6500 (manufactured by Beckmann) using 150 μL of the resulting supernatant with Ultima Gold (manufactured by PerkinElmer Life Sciences Inc., 6013329) as a scintillation cocktail. […] The inhibitory activity for ACAT (%) of each of the subject samples was calculated in accordance with the following formula setting an inhibitory ratio upon addition of 10 μM FR179254 which is a positive control as 100%. […]

RAW 264.7 cells = test: Determination of anti-foaming in macrophage (cholesterol ester accumulation with Ac-LDL); format: cell-based; settings: Ac-LDL 20 μg/mL, 24 hours
Description: Macrophage introduces a modified LDL (such as acetyl LDL (Ac-LDL) into a cell to synthesize cholesterol ester, thereby foaming. An anti-foaming activity for the macrophage with each subject sample was determined.
RAW 264.7 cells (ATCC TIB 71) were suspended in Dulbecco's modified Eagle's medium (manufactured by Sigma, D5796) containing 10% fetal bovine serum (manufactured by Cambrex Corporation), so as to have a concentration of 4×10^5 cells/ml, and the suspension was put to each well of a 24-well microtiter plate in an amount of 1 ml per well. The cells were cultured at 37° C. overnight in the presence of 5% carbon dioxide gas. Next, the medium was exchanged with UltraCHO media (manufactured by Cambrex Corporation, B2724) and 2 μL of the dimethyl sulfoxide solution of each of the subject samples prepared in the above-mentioned Preparation Examples was added to each well so as to have a concentration shown in the following Table 1. Here, the purified ethanol extract fraction from a leaf of Peucedanum japonicum -Fr. 2-2 was used for 3′-acetoxy-4′-senecioyloxy-3′,4′-dihydroseselin in Table 1. Further, Ac-LDL (manufactured by Biomedical Technology, Inc., BT-906) at a final concentration of 20 μg/mL was added to each well, and each mixture was cultured for 24 hours. Here, there were set a group without addition of Ac-LDL and a group with addition of dimethyl sulfoxide as controls.
The total amount of cholesterol in a cell and the amount of free cholesterol were determined to calculate the amount of cholesterol ester as an index for anti-foaming for macrophage.
After the termination of the culture, the medium was removed, and the cells were washed with a 0.3% (w/v) BSA (manufactured by Sigma, A-8022) containing phosphate buffered saline and further washed with a phosphate buffered saline. The amount 0.5 mL of a solvent of hexane:isopropanol=3:2 was added to the cells. The mixture was allowed to stand at room temperature for 30 minutes, and thereafter the supernatant was collected. The procedures were repeated again, and a total of 1 mL of the supernatant was concentrated to dryness. The precipitate was dissolved in 30 μL of isopropanol, and thereafter the total amount of cholesterol contained in 10 μL of the resulting solution was determined with Cholesterol E-Test (manufactured by Wako Pure Chemical Industries, Ltd., 439-17501) and the amount of free cholesterol was determined with Free Cholesterol E-Test (manufactured by Wako Pure Chemical Industries, Ltd., 435-35801). All of the determinations were carried out twice. The amount of biosynthesis of cholesterol ester was determined by subtracting the amount of free cholesterol from the total amount of cholesterol. The anti-foaming activity was calculated in accordance with the following formula. […]

## CC(=O)OC1C(OC(=O)C=C(C)C)c2c(ccc3ccc(=O)oc23)OC1(C)C (centres unmarked) [3′-acetoxy-4′-senecioyloxy-3′,4′-dihydroseselin]
mouse
  deaths after oral administration: no cases of deaths are found
ACAT; final concentration 25 μM
  Inhibitory Activity for ACAT (%): 40%
ACAT; final concentration 50 μM
  Inhibitory Activity for ACAT (%): 65%
ACAT; final concentration 100 μM
  Inhibitory Activity for ACAT (%): 87%
RAW 264.7 cells; Mus musculus, RAW264.7, final concentration 20 μM
  inhibition at 20 µM: 19%
RAW 264.7 cells; Mus musculus, RAW264.7, final concentration 40 μM
  inhibition at 40 µM: 98%
RAW 264.7 cells; final concentration 0.1 %
  Anti-Foaming Activity (%): 34%
RAW 264.7 cells; final concentration 0.2 %
  Anti-Foaming Activity (%): 72%
